Data from PubChem BioAssay AID248 (DTP/NCI, 2004).
Values joined by “and” are separate entries in the source; they are usually repeats but may differ in a detail not shown here. Identical values can stand only once. Inconclusive results and toxic doses are left out. Cut-off read from the data, not from the text of the source: active = T/C of 150% or more; inactive = T/C below 125%.

Test system: L1210 leukemia ip in BDF1 mice, survival T/C
Test: NCI In Vivo Anticancer Drug Screen. Data for tumor model L1210 Leukemia (intraperitoneal) in B6D2F1 (BDF1) mice
Settings: higher = longer survival
Summary of the method: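 Each compound was tested against a transplantable tumor grown in mice. The endpoint was survival, with treated animals benchmarked against vehicle controls as a simple ratio.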

Measured: T/C

CN(Cc1cnc2nc(N)nc(N)c2n1)c1ccc(C(=O)N[C@@H](CCC(=O)O)C(=O)O)cc1
inactive: endpoint: mean survival time, dose: 0.02 mg/kg/injection, schedule: Q01DX Z (ip), vehicle: saline 94 % of control | endpoint: mean survival time, dose: 0.03 mg/kg/injection, schedule: Q#A X Z (ip), vehicle: saline 107 % of control | endpoint: mean survival time, dose: 0.08 mg/kg/injection, schedule: Q01DX009 (ip), vehicle: sodium bicarbonate 99 % of control and 108 % of control | endpoint: mean survival time, dose: 0.1 mg/kg/injection, schedule: Q03HX008 (ip), vehicle: sodium bicarbonate 105 % of control | endpoint: mean survival time, dose: 0.1 mg/kg/injection, schedule: Q## X008 (other), vehicle: sodium bicarbonate 105 % of control | endpoint: mean survival time, dose: 0.12 mg/kg/injection, schedule: Q01DX Z (ip), vehicle: saline 108 % of control | endpoint: mean survival time, dose: 0.13 mg/kg/injection, schedule: Q01DX Z (sc), vehicle: saline 110 % of control | endpoint: mean survival time, dose: 0.13 mg/kg/injection, schedule: Q03HX016 (ip), vehicle: other 107 % of control | endpoint: mean survival time, dose: 0.15 mg/kg/injection, schedule: Q03HX008 (ip), vehicle: sodium bicarbonate 109 % of control | endpoint: mean survival time, dose: 0.15 mg/kg/injection, schedule: Q## X008 (other), vehicle: sodium bicarbonate 109 % of control | endpoint: mean survival time, dose: 0.19 mg/kg/injection, schedule: Q01DX009 (ip), vehicle: sodium bicarbonate 102 % of control | endpoint: mean survival time, dose: 0.19 mg/kg/injection, schedule: Q## X Z (ip), vehicle: saline 102 % of control | endpoint: mean survival time, dose: 0.38 mg/kg/injection, schedule: Q## X Z (ip), vehicle: saline 111 % of control | endpoint: mean survival time, dose: 0.49 mg/kg/injection, schedule: Q03HX003 (ip), vehicle: other 108 % of control | endpoint: mean survival time, dose: 0.49 mg/kg/injection, schedule: Q03HX004 (ip), vehicle: other 104 % of control | endpoint: mean survival time, dose: 0.49 mg/kg/injection, schedule: Q03HX005 (ip), vehicle: other 107 % of control | endpoint: mean survival time, dose: 0.49 mg/kg/injection, schedule: Q03HX006 (ip), vehicle: other 110 % of control | endpoint: mean survival time, dose: 0.5 mg/kg/injection, schedule: Q01DX006 (iv), vehicle: saline 112 % of control | endpoint: mean survival time, dose: 0.5 mg/kg/injection, schedule: Q07DX003 (ip), vehicle: saline 107 % of control | endpoint: mean survival time, dose: 0.73 mg/kg/injection, schedule: Q01DX001 (ip), vehicle: other 94 % of control | endpoint: mean survival time, dose: 0.73 mg/kg/injection, schedule: Q03HX002 (ip), vehicle: other 104 % of control | endpoint: mean survival time, dose: 0.73 mg/kg/injection, schedule: Q03HX003 (ip), vehicle: other 102 % of control | endpoint: mean survival time, dose: 0.73 mg/kg/injection, schedule: Q03HX004 (ip), vehicle: other 107 % of control | endpoint: mean survival time, dose: 0.73 mg/kg/injection, schedule: Q03HX006 (ip), vehicle: other 109 % of control | endpoint: mean survival time, dose: 0.75 mg/kg/injection, schedule: Q## X Z (ip), vehicle: other 108 % of control | endpoint: mean survival time, dose: 0.9 mg/kg/injection, schedule: Q07DX003 (ip), vehicle: saline 102 % of control | endpoint: mean survival time, dose: 1.1 mg/kg/injection, schedule: Q01DX001 (ip), vehicle: other 95 % of control | endpoint: mean survival time, dose: 1.1 mg/kg/injection, schedule: Q03HX002 (ip), vehicle: other 112 % of control | endpoint: mean survival time, dose: 1.1 mg/kg/injection, schedule: Q03HX003 (ip), vehicle: other 107 % of control | endpoint: mean survival time, dose: 1.1 mg/kg/injection, schedule: Q03HX005 (ip), vehicle: other 109 % of control | endpoint: mean survival time, dose: 1.5 mg/kg/injection, schedule: Q01DX001 (ip), vehicle: water 109 % of control and 110 % of control | endpoint: mean survival time, dose: 1.62 mg/kg/injection, schedule: Q03HX002 (ip), vehicle: other 108 % of control | endpoint: mean survival time, dose: 1.62 mg/kg/injection, schedule: Q03HX003 (ip), vehicle: other 109 % of control | endpoint: mean survival time, dose: 1.8 mg/kg/injection, schedule: Q07DX003 (ip), vehicle: saline 107 % of control | endpoint: mean survival time, dose: 2.0 mg/kg/injection, schedule: Q01DX001 (ip), vehicle: saline 107 % of control | endpoint: mean survival time, dose: 2.25 mg/kg/injection, schedule: Q01DX001 (ip), vehicle: water 111 % of control | endpoint: mean survival time, dose: 2.25 mg/kg/injection, schedule: Q## X006 (ip), vehicle: other 108 % of control | endpoint: mean survival time, dose: 3.4 mg/kg/injection, schedule: Q01DX009 (ip), vehicle: sodium bicarbonate 96 % of control | endpoint: mean survival time, dose: 3.5 mg/kg/injection, schedule: Q07DX003 (ip), vehicle: saline 111 % of control | endpoint: mean survival time, dose: 4.0 mg/kg/injection, schedule: Q01DX009 (ip), vehicle: other 93 % of control | endpoint: mean survival time, dose: 4.0 mg/kg/injection, schedule: Q01DX009 (ip), vehicle: sodium bicarbonate 95 % of control | endpoint: mean survival time, dose: 4.0 mg/kg/injection, schedule: Q01DX Z (oral), vehicle: saline 109 % of control | endpoint: mean survival time, dose: 4.0 mg/kg/injection, schedule: Q01DX Z (sc), vehicle: saline 109 % of control | endpoint: mean survival time, dose: 4.0 mg/kg/injection, schedule: Q12HX007 (ip), vehicle: other 109 % of control | endpoint: mean survival time, dose: 4.0 mg/kg/injection, schedule: Q#A X Z (ip), vehicle: saline 112 % of control | endpoint: mean survival time, dose: 5.0 mg/kg/injection, schedule: Q01DX009 (ip), vehicle: sodium bicarbonate 105 % of control | endpoint: mean survival time, dose: 6.0 mg/kg/injection, schedule: Q12HX005 (ip), vehicle: other 104 % of control | endpoint: mean survival time, dose: 6.0 mg/kg/injection, schedule: Q12HX006 (ip), vehicle: other 102 % of control | endpoint: mean survival time, dose: 6.3 mg/kg/injection, schedule: Q01DX009 (ip), vehicle: saline 108 % of control | endpoint: mean survival time, dose: 7.2 mg/kg/injection, schedule: Q## X032 (ip), vehicle: water 102 % of control | endpoint: mean survival time, dose: 8.0 mg/kg/injection, schedule: Q01DX006 (ip), vehicle: other 110 % of control | endpoint: mean survival time, dose: 8.0 mg/kg/injection, schedule: Q01DX007 (ip), vehicle: other 111 % of control | endpoint: mean survival time, dose: 8.0 mg/kg/injection, schedule: Q01DX008 (ip), vehicle: other 100 % of control | endpoint: mean survival time, dose: 8.0 mg/kg/injection, schedule: Q01DX009 (oral), vehicle: other 107 % of control | endpoint: mean survival time, dose: 8.0 mg/kg/injection, schedule: Q01DX015 (ip), vehicle: other 102 % of control | endpoint: mean survival time, dose: 8.0 mg/kg/injection, schedule: Q01DX Z (oral), vehicle: saline 97 % of control | endpoint: mean survival time, dose: 9.0 mg/kg/injection, schedule: Q01DX005 (ip), vehicle: other 100 % of control | endpoint: mean survival time, dose: 9.0 mg/kg/injection, schedule: Q12HX004 (ip), vehicle: other 111 % of control | endpoint: mean survival time, dose: 9.0 mg/kg/injection, schedule: Q## X008 (ip), vehicle: other 102 % of control | endpoint: mean survival time, dose: 13.0 mg/kg/injection, schedule: Q01DX004 (ip), vehicle: other 101 % of control | endpoint: mean survival time, dose: 13.0 mg/kg/injection, schedule: Q01DX005 (ip), vehicle: other 102 % of control | endpoint: mean survival time, dose: 13.0 mg/kg/injection, schedule: Q03HX005 (ip), vehicle: other 100 % of control | endpoint: mean survival time, dose: 13.0 mg/kg/injection, schedule: Q12HX004 (ip), vehicle: other 94 % of control | endpoint: mean survival time, dose: 13.5 mg/kg/injection, schedule: Q## X008 (ip), vehicle: other 93 % of control | endpoint: mean survival time, dose: 16.0 mg/kg/injection, schedule: Q03HX008 (ip), vehicle: other 98 % of control | endpoint: mean survival time, dose: 20.0 mg/kg/injection, schedule: Q01DX003 (ip), vehicle: other 101 % of control | endpoint: mean survival time, dose: 20.0 mg/kg/injection, schedule: Q## X008 (ip), vehicle: other 102 % of control | endpoint: mean survival time, dose: 30.0 mg/kg/injection, schedule: Q01DX003 (ip), vehicle: other 102 % of control | endpoint: mean survival time, dose: 30.0 mg/kg/injection, schedule: Q04DX004 (ip), vehicle: other 96 % of control | endpoint: mean survival time, dose: 32.0 mg/kg/injection, schedule: Q01DX001 (sc), vehicle: other 112 % of control | endpoint: mean survival time, dose: 40.0 mg/kg/injection, schedule: Q04DX003 (ip), vehicle: sodium bicarbonate 95 % of control | endpoint: mean survival time, dose: 45.0 mg/kg/injection, schedule: Q01DX002 (ip), vehicle: other 109 % of control | endpoint: mean survival time, dose: 67.0 mg/kg/injection, schedule: Q01DX002 (ip), vehicle: other 98 % of control | endpoint: mean survival time, dose: 67.0 mg/kg/injection, schedule: Q12HX002 (ip), vehicle: other 100 % of control | endpoint: mean survival time, dose: 70.0 mg/kg/injection, schedule: Q04DX002 (ip), vehicle: sodium bicarbonate 99 % of control | endpoint: mean survival time, dose: 112.0 mg/kg/injection, schedule: Q07DX003 (ip), vehicle: saline 97 % of control | endpoint: mean survival time, dose: 128.0 mg/kg/injection, schedule: Q01DX001 (oral), vehicle: other 108 % of control | endpoint: mean survival time, dose: 150.0 mg/kg/injection, schedule: Q03HX002 (ip), vehicle: other 93 % of control | endpoint: mean survival time, dose: 200.0 mg/kg/injection, schedule: Q04DX002 (ip), vehicle: saline 111 % of control | endpoint: mean survival time, dose: 250.0 mg/kg/injection, schedule: Q01DX001 (ip), vehicle: water 112 % of control | endpoint: mean survival time, dose: 256.0 mg/kg/injection, schedule: Q01DX001 (oral), vehicle: other 97 % of control | endpoint: mean survival time, dose: 256.0 mg/kg/injection, schedule: Q01DX001 (sc), vehicle: other 98 % of control | endpoint: mean survival time, dose: 300.0 mg/kg/injection, schedule: Q01DX001 (ip), vehicle: water 105 % of control | endpoint: mean survival time, dose: 375.0 mg/kg/injection, schedule: Q01DX001 (ip), vehicle: water 101 % of control | endpoint: mean survival time, dose: 512.0 mg/kg/injection, schedule: Q01DX001 (oral), vehicle: other 111 % of control | endpoint: mean survival time, dose: 37.5 micrograms/kg/injection, schedule: Q01DX009 (ip), vehicle: saline 104 % of control and 110 % of control | endpoint: mean survival time, dose: 70.0 micrograms/kg/injection, schedule: Q01DX Z (ip), vehicle: carboxymethylcellulose (CMC) 97 % of control | endpoint: mean survival time, dose: 75.0 micrograms/kg/injection, schedule: Q01DX009 (ip), vehicle: saline 107 % of control and 110 % of control | endpoint: mean survival time, dose: 100.0 micrograms/kg/injection, schedule: Q01DX015 (ip), vehicle: other 105 % of control | endpoint: mean survival time, dose: 140.0 micrograms/kg/injection, schedule: Q01DX Z (ip), vehicle: carboxymethylcellulose (CMC) 110 % of control | endpoint: mean survival time, dose: 150.0 micrograms/kg/injection, schedule: Q01DX015 (ip), vehicle: other 108 % of control | endpoint: mean survival time, dose: 6000.0 micrograms/kg/injection, schedule: Q01DX009 (ip), vehicle: Klucel (hydroxypropylcellulose) (HPC) 100 % of control | endpoint: median survival time, dose: 5.0 mg/kg/injection, schedule: Q01DX009 (ip), vehicle: other 110 % of control | endpoint: median survival time, dose: 8.0 mg/kg/injection, schedule: Q01DX001 (ip), vehicle: sodium bicarbonate 111 % of control | endpoint: median survival time, dose: 32.0 mg/kg/injection, schedule: Q01DX001 (ip), vehicle: sodium bicarbonate 110 % of control
